In brackets after ≈: the same amount, converted by molar mass. Activity calls are given as the source filed them. The calls are words filed in the database; no cut-off is given here.
How the values were obtained:
[1] = test system: Staphylococcus aureus; assay: Antibacterial activity against Staphylococcus aureus ATCC 25923 by disc diffusion method; format: functional; details: for MIC: Staphylococcus aureus, ATCC 25923, read-out: MIC
[2] = test system: Rattus norvegicus; assay: Antiinflammatory activity in Wister Albino rat assessed as inhibition of paw edema at 50 mg/kg, po after 3hrs; format: functional
[3] = test system: Talaromyces marneffei; assay: Antifungal activity against Penicillium marneffei by serial plate dilution method; format: functional; details: for MIC: Talaromyces marneffei
[4] = test system: Mus musculus; assay: Anticonvulsant activity in Swiss Albino mouse assessed as duration of seizure at 2 mg/kg, po by PTZ induced seizure test; format: functional
[5] = test system: Pseudomonas aeruginosa; assay: Antibacterial activity against Pseudomonas aeruginosa ATCC 27853 by disc diffusion method; format: functional; details: for MIC: Pseudomonas aeruginosa, ATCC 27853
[6] = test system: Klebsiella pneumoniae; assay: Antibacterial activity against Klebsiella pneumoniae by disc diffusion method; format: functional; details: for MIC: Klebsiella pneumoniae
[7] = test system: Aspergillus fumigatus; assay: Antifungal activity against Aspergillus fumigatus NCIM 902 by serial plate dilution method; format: functional; details: for MIC: Aspergillus fumigatus, NCIM 902
[8] = test system: Mus musculus; assay: Anticonvulsant activity in Swiss Albino mouse assessed as duration of seizure at 50 mg/kg, po by PTZ induced seizure test; format: functional
[9] = test system: Mus musculus; assay: Anticonvulsant activity in Swiss Albino mouse assessed as mortality at 50 mg/kg, po by PTZ induced seizure test; format: functional, organism-based; design: dose 50 mg/kg
[10] = test system: Escherichia coli; assay: Antibacterial activity against Escherichia coli ATCC 25922 by disc diffusion method; format: functional; details: for MIC: Escherichia coli, ATCC 25922
[11] = test system: Aspergillus flavus; assay: Antifungal activity against Aspergillus flavus NCIM 524 by serial plate dilution method; format: functional; details: for MIC: Aspergillus flavus, NCIM 524
[12] = test system: Trichophyton benhamiae; assay: Antifungal activity against Trichophyton mentagrophytes by serial plate dilution method; format: functional, Arthroderma benhamiae; details: for MIC: Trichophyton benhamiae

SMILES | inhibition zone (IZ) [1] [mm] | MIC [1] [µg/mL] | inhibition in vivo at 50 mg/kg [2] [%] | inhibition zone (IZ) [3] [mm] | MIC [3] [µg/mL] | Activity [4] [s] | inhibition zone (IZ) [5] [mm] | MIC [5] [µg/mL] | inhibition zone (IZ) [6] [mm] | MIC [6] [µg/mL] | inhibition zone (IZ) [7] [mm] | MIC [7] [µg/mL] | Activity [8] [s] | Activity [9] | inhibition zone (IZ) [10] [mm] | MIC [10] [µg/mL] | inhibition zone (IZ) [11] [mm] | MIC [11] [µg/mL] | inhibition zone (IZ) [12] [mm] | MIC [12] [µg/mL]
CCc1nn2c(=O)c3c4c(sc3nc2s1)CCCC4 | 8 | > 100 | 51.1 | 6 | > 100 | 110 | 18 | 10 (≈ 34.3 µM) | 22 | 10 (≈ 34.3 µM) | 6 | > 100 | 185 | inactive | 10 | 80 (≈ 275 µM) | 8 | > 100 | 6 | > 100
Nn1c(SCC(=O)c2ccc(Cl)cc2)nc2sc3c(c2c1=O)CCCC3 | 8 | > 100 |  | 6 | > 100 | 400 | 18 | 12.5 (≈ 30.8 µM) | 6 | > 100 | 8 | > 100 | 255 | inactive | 8 | > 100 | 6 | > 100 | 8 | > 100
Nn1c(SCC(=O)c2ccccc2)nc2sc3c(c2c1=O)CCCC3 | 18 | 12.5 (≈ 33.6 µM) | 4.44 | 6 | > 100 |  | 8 | > 100 | 8 | > 100 | 8 | > 100 |  |  | 8 | > 100 | 10 | 80 (≈ 215 µM) | 8 | > 100
Nn1c(SCC(=O)c2ccc(O)c(O)c2)nc2sc3c(c2c1=O)CCCC3 | 16 | 60 (≈ 149 µM) |  | 6 | > 100 | 62 | 16 | 60 (≈ 149 µM) | 10 | 80 (≈ 198 µM) | 8 | > 100 | 270 | inactive | 10 | 80 (≈ 198 µM) | 6 | > 100 | 8 | > 100
O=c1c2c3c(sc2nc2sc(-c4ccc([N+](=O)[O-])cc4)nn12)CCCC3 | 8 | > 100 | 48.9 | 6 | > 100 | 56 | 9 | 100 (≈ 260 µM) | 20 | 10 (≈ 26 µM) | 5 | > 100 | 40 | inactive | 8 | > 100 | 10 | 80 (≈ 208 µM) | 6 | > 100
Nn1c(SCC(=O)c2ccnc(Cl)c2)nc2sc3c(c2c1=O)CCCC3 | 10 | 80 (≈ 197 µM) |  | 6 | > 100 |  | 8 | > 100 | 10 | 80 (≈ 197 µM) | 10 | 80 (≈ 197 µM) |  |  | 8 | > 100 | 6 | > 100 | 8 | > 100
OC(Cn1cncn1)(Cn1cncn1)c1ccc(F)cc1F [FLUCONAZOLE] |  |  |  | 21 | < 6.25 |  |  |  |  |  | 21 | < 6.25 |  |  |  |  | 18 | < 6.25 | 19 | < 6.25
COc1ccc(C(=O)CSc2nc3sc4c(c3c(=O)n2N)CCCC4)cc1 | 8 | > 100 |  | 8 | > 100 | 41 | 8 | > 100 | 18 | 12.5 (≈ 31.1 µM) | 16 | 12.5 (≈ 31.1 µM) | 450 | inactive | 8 | > 100 | 12 | 80 (≈ 199 µM) | 4 | > 100
O=c1c2c3c(sc2nc2sc(=S)[nH]n12)CCCC3 |  |  | 7.69 |  |  | 56 |  |  |  |  |  |  | 39 | inactive |  |  |  |  |  | 

From ChEMBL document CHEMBL1146350, “Synthesis of some new bioactive 3-amino-2-mercapto-5,6,7,8-tetrahydro[1]benzothieno[2,3-d]pyrimidin-4(3H)-one derivatives” (2007)
